Measured values reported in US20160166676A1 (priority 2013, published 2016).

Tests used:
CTLL-2 cells = assay type: cell-based
[1] = tested on: BMDCs infected with Influenza A virus; assay type: cell-based

DRGWGNGCGLFGKG [FLV IS mono/1]
proliferation of CTLL-2 cells (CTLL-2 cells): has no effect

GLFGAIAGFIENGWEGCGGEKEKEK [IN F#2 monomer]
effect of mixing the monomer with the dimeric peptide on the suppressive activity of the dimer (CTLL-2 cells): completely removes the suppressive activity of the dimers
proliferation of CTLL-2 cells (CTLL-2 cells): has no effect

GLFGAIAGFIENGWEGGGGEKEKEK [INF F#2 C17G]
interferon response to influenza infection in vitro [1]: enhances the interferon response
